Test results published in patent publication US20160346249A1 (priority 2012, published 2016).

Columns and labels:
[1] = 26-week rat toxicity and toxicokinetic study; format: in vivo; settings: for Tmax / AUC(0-t) / Cmax: Crl:CD(SD)IGS BR, rat, po; for AUC(0-t): read-out: AUC0-24; for mean body weight lower than control: end of 4-week recovery; for mean cumulative body weight gain lower: end of treatment
Protocol: A portion of the animals from each group was maintained for an additional 4-week post-treatment recovery period.
For toxicology assessment, groups comprised thirty animals of each gender. Assessments included clinical observations, body weight, and food consumption measures noted periodically during the study. […] Ophthalmic examinations were performed during Weeks 1 and 13. […] In addition, the liver, vagina, and ovaries were identified as potential target tissues and were examined microscopically for all animals from all groups at the primary and recovery necropsies. […] 10 animals of each gender from each group were held to week 30 for a 4-week post-treatment recovery period.
For the toxicokinetic studies, there were ten animals of each gender in each group.

[2] = In vitro metabolism in human hepatocytes; settings: male, human, hepatocytes, 4 h, 87 μM
Protocol: Cryopreserved human hepatocytes (male) that are prepared by XenoTech, LLC (Lenexa, Kans.), are thawed on the day of use and resuspended in Waymouth's incubation media. The enzymatic activity of hepatocytes is monitored using 7-ethoxycoumarin and 7-hydroxycoumarin as substrates. […] The incubations are carried out for 4 hours with 1×10^6 viable cells/ml. […] At 0 and 4 hour, cell suspensions are extracted using two volumes of ice cold methanol. After centrifugation, the extracts are stored at −20° C. until further sample processing. The solvent in the samples are dried under a stream of nitrogen, and resuspended in methanol:water (1:1) before analysis.
The extracts of the 4 hour incubation mixture are analyzed by liquid chromatography/electrospray ionization-mass spectrometry (LC/ESI-MS) in the positive and negative ion modes to screen for possible metabolites. HPLC Methods 1 and 2 are used to find potential metabolites, and the HPLC and mass spectrometry systems are described in Table 56. The same instrumentation and methods in HPLC Method 1 are used in HPLC Method 2 with the exception that the mobile phases and gradient are changed to 0.4% HCOOH in H2O for mobile A and CH3OH for mobile phase B. The mass spectrometer is LCQ™ Ion Trap Mass Spectrometer and is in either the positive or negative electrospray mode with the ion spray set at 4.5 kV. The capillary temperature is 250° C., the nitrogen sheath gas flow rate is ˜80 unit, the auxiliary nitrogen gas flow rate is 20 unit, and the collision gas is helium.

[3] = 13-week mouse toxicity and toxicokinetic study; settings: in vivo; for AUC(0-t): AUC0-24
Protocol: For toxicology assessment ten mice of each gender were placed in each group.
Ophthalmic examinations were performed during Weeks −1 and 12.

[4] = female, in vivo, 25 mg/kg/day, females, 25 mg/kg/day, Day 0
[5] = female, in vivo, 25 mg/kg/day, females, 25 mg/kg/day, Day 177
[6] = male, in vivo, 8 mg/kg/day, males, 8 mg/kg/day, Day 0
[7] = male, in vivo, 8 mg/kg/day, males, 8 mg/kg/day, Day 177
[8] = male, in vivo, 25 mg/kg/day, males, 25 mg/kg/day, Day 0
[9] = male, in vivo, 25 mg/kg/day, males, 25 mg/kg/day, Day 177
[10] = female, Crl:CD-1(ICR) BR, po, 10 mg/kg/day
[11] = female, Crl:CD-1(ICR) BR, po, 30 mg/kg/day
[12] = female, Crl:CD-1(ICR) BR, po, 100 mg/kg/day
[13] = male, Crl:CD-1(ICR) BR, po, 10 mg/kg/day
[14] = male, Crl:CD-1(ICR) BR, po, 30 mg/kg/day
[15] = male, Crl:CD-1(ICR) BR, po, 100 mg/kg/day

With `Clc1ccc([C@]23CNC[C@H]2C3)cc1Cl` [amitifadine, (+)-1-(3,4-dichlorophenyl)-3-azabicyclo[3.1.0]hexane] the Tmax [1, 4] was 1 h, the AUC(0-t) [1, 4] was 23800 ng·h/mL and the Cmax [1, 5] was 3500 ng/mL. It also gave a Tmax [1, 5] of 1 h, an AUC(0-t) [1, 5] of 29700 ng·h/mL and a Tmax ([1]; female, in vivo, […], females, […], Day 0) of 2 h. The Tmax ([1]; female, in vivo, […], females, […], Day 177) was 1 h, the AUC(0-t) ([1]; female, plasma, 8 mg/kg/day, females, 8 mg/kg/day, Day 177) was 11100 ng·h/mL and the “mean ovary/oviduct weights higher” value ([1]; females, 25 mg/kg/day) was 12%. For the same compound, the “mean body weight lower than control” value ([1]; females, 25 mg/kg/day) was 10%, the “mean cumulative body weight gain lower” value ([1]; females, 25 mg/kg/day) was 14% and the “liver metabolic enzyme induction” value ([1]; male rats, 25 mg/kg/day, 26 weeks) was “inducer of CYP1A, CYP2B, and CYP2E”. The Tmax [1, 6] was 1 h, the AUC(0-t) [1, 6] was 5380 ng·h/mL and the Cmax [1, 7] was 954 ng/mL. The Tmax [1, 7] was 1 h, the Cmax [1, 8] was 2600 ng/mL and the Tmax [1, 8] was 1 h. The AUC(0-t) [1, 8] was 18100 ng·h/mL, the Cmax [1, 9] was 2600 ng/mL and the AUC(0-t) [1, 9] was 17800 ng·h/mL. For the same compound, the Tmax ([1]; male, in vivo, […], males, […], Day 0) was 1 h, the Tmax ([1]; male, in vivo, […], males, […], Day 177) was 1 h and the AUC(0-t) ([1]; male, plasma, 8 mg/kg/day, males, 8 mg/kg/day, Day 177) was 7130 ng·h/mL. For the same compound, the “mean testes weights higher” value ([1]; males, 25 mg/kg/day) was 9.5%, the “mean body weight lower than control” value ([1]; males, 25 mg/kg/day) was 12% and the “mean cumulative body weight gain lower” value ([1]; males, 25 mg/kg/day) was 18%. For the same compound, the NOEL ([1]; oral gavage, 26 weeks) was 2.5 mg/kg/day, the “remains unchanged after 4 hour incubation” value [2] was 82.4% and the NOAEL at 13 weeks ([3]; both sexes, Crl:CD-1(ICR) BR, oral, 13 weeks) was 30 mg/kg/day. The MTD at 13 weeks ([3]; both sexes, Crl:CD-1(ICR) BR, po) was 100 mg/kg/day, the “anovulatory status (females affected)” value ([3]; female, Crl:CD-1(ICR) BR, 100 mg/kg/day, 13 weeks) was 5/10 and the AUC0-24 [3, 10] was 1980 ng·h/mL. For the same compound, the AUC(0-t) [3, 10] was 2540 ng·h/mL, the Cmax [3, 10] was 296 ng/mL and the Tmax [3, 10] was 1 h. The AUC0-24 [3, 11] was 7629 ng·h/mL, the AUC(0-t) [3, 11] was 7120 ng·h/mL and the Cmax [3, 11] was 972 ng/mL. For the same compound, the Tmax [3, 11] was 2 h, the AUC0-24 [3, 12] was 17431 ng·h/mL and the AUC(0-t) [3, 12] was 20000 ng·h/mL. For the same compound, the Cmax [3, 12] was 2450 ng/mL, the Tmax [3, 12] was 1 h and the ovary/oviduct weights lower ([3]; 100 mg/kg/day) was 23-28%. For the same compound, the AUC0-24 [3, 13] was 2141 ng·h/mL, the AUC(0-t) [3, 13] was 2050 ng·h/mL and the Cmax [3, 13] was 288 ng/mL. It also gave a Tmax [3, 13] of 1 h, an AUC0-24 [3, 14] of 6659 ng·h/mL and an AUC(0-t) [3, 14] of 7290 ng·h/mL. For the same compound, the Cmax [3, 14] was 704 ng/mL, the Tmax [3, 14] was 1 h and the AUC0-24 [3, 15] was 28952 ng·h/mL. For the same compound, the AUC(0-t) [3, 15] was 24100 ng·h/mL, the Cmax [3, 15] was 2850 ng/mL and the Tmax [3, 15] was 1 h.
